Key:
U373-MG cells = conditions: cited from earlier work
[1] = system: human malignant glioma U87-MG and U373-MG cells; conditions: cited from earlier work
[2] = system: constitutively activated STAT3 in Colo357-FG cells; experiment: Western blot of phosphorylated STAT3 (Tyr705) and total STAT3 in Colo357-FG cells (FIG. 1); type: cell-based, human
Source text: Cultured pancreatic cancer cells treated with different times and concentrations of WP compounds or DMSO (solvent) were lysed in lysis buffer and equal amounts of protein extracts were fractionated by sodium dodecyl sulfate polyacrylamide gel electrophoresis and transferred to Hybond-P membranes. Membranes were immuno-blotted using phospho-specific STAT3, total STAT3, Bcl-xL, survivin, PARP, caspase-8 and GADPH antibodies. The primary antibodies were visualized with goat anti-rabbit or goat anti-mouse peroxidase-conjugated antibodies using an enhanced […] (ECF) system and a Molecular Dynamics Storm PhosphorImager.

[3] = system: subcutaneous malignant glioma xenografts; conditions: cited from earlier work
U87-MG cells = conditions: cited from earlier work
STAT3 = experiment: Inhibition of STAT3 phosphorylation, WP1193 compared with WP1066 (FIG. 34); type: cell-based

C[C@H](NC(=O)/C(C#N)=C/c1cccc(Br)n1)c1ccccc1 [WP1066]
IC50 (U373-MG cells): 3.7 µM
increase in potency over that of AG490 (U373-MG cells; versus AG490): eightfold
Bax, c-myc, Bcl-XL, Mcl-1 and apoptosis [1]: activated Bax, suppressed the expression of c-myc, Bcl-XL and Mcl-1, and induced apoptosis
inhibition of constitutively activated STAT3 (phospho-Tyr705 versus total STAT3) [2]: Inhibition of constitutively activated STAT3
phosphorylated STAT3 levels in excised tumors (immunohistochemical analysis) ([3]; 3 weeks after the final WP1066 injection, versus control group): remained inhibited
growth of subcutaneous malignant glioma xenografts ([3]; mice, systemic intraperitoneal administration, 30-day follow-up period): significantly (P<0.001) inhibited the growth
IC50 (U87-MG cells): 5.6 µM
increase in potency over that of AG490 (U87-MG cells; versus AG490): 18 fold

N#C/C(=C\c1cccc(Br)n1)C(=O)N[C@H](c1ccccc1)C1CC1 [WP1193, (E)-3-(6-bromopyridin-2-yl)-2-cyano-N-((S)-cyclopropyl(phenyl)methyl)acrylamide]
inhibition of constitutively activated STAT3 (phospho-Tyr705 versus total STAT3) [2]: Inhibition of constitutively activated STAT3
inhibition of STAT3 phosphorylation relative to WP1066 (STAT3): more potently than WP1066
